Like-named read-outs stand apart in the source and are kept apart here.
Columns and labels:
Assay in all cases: Post-emergent Test III, herbicidal activity in wheat and barley
Assay type in all cases: in vivo
[1] = test system: ALOMY: black-grass (Alopecurus myosuroides); conditions: for pest or weed control at 35 g/ha / pest or weed control at 70 g/ha / pest or weed control at 140 g/ha: Alopecurus myosuroides, post-emergence, 504 h, read-out: Visual Growth Reduction (%) 21 Days After Application ALOMY; for pest or weed control at 35 g/ha: 35 g ai/ha; for pest or weed control at 70 g/ha: 70 g ai/ha; for pest or weed control at 140 g/ha: 140 g ai/ha; for GR50 ALOMY / GR80 ALOMY: probit analysis, 21 days after application; for GR50 ALOMY: dose for growth reduction of 50 percent; for GR80 ALOMY: dose for growth reduction of 80 percent
In short: (§1)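 GR20, GR50, GR80 and GR90 come from probit analysis of visual injury scores (0 = none, 100 = complete kill) taken 21 d after treatment. Foliar application was by track sprayer delivering 187 L/ha at five rates, from high down to 1/16×, onto greenhouse plants at the 2–3 leaf stage, with solvent-blank controls.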

[2] = test system: PAPRH: common poppy (Papaver rhoeas); conditions: for pest or weed control at 35 g/ha / pest or weed control at 70 g/ha / pest or weed control at 140 g/ha: Papaver rhoeas, post-emergence, 504 h, read-out: Visual Growth Reduction (%) 21 Days After Application PAPRH; for pest or weed control at 35 g/ha: 35 g ai/ha; for pest or weed control at 70 g/ha: 70 g ai/ha; for pest or weed control at 140 g/ha: 140 g ai/ha; for GR50 PAPRH / GR80 PAPRH: probit analysis
In short: as §1

[3] = test system: PHAMI: lesser canary grass (Phalaris minor); conditions: for pest or weed control at 35 g/ha / pest or weed control at 70 g/ha / pest or weed control at 140 g/ha: Phalaris minor, post-emergence, 504 h, read-out: Visual Growth Reduction (%) 21 Days After Application PHAMI; for pest or weed control at 35 g/ha: 35 g ai/ha; for pest or weed control at 70 g/ha: 70 g ai/ha; for pest or weed control at 140 g/ha: 140 g ai/ha; for GR50 PHAMI / GR80 PHAMI: probit analysis, 21 days after application; for GR50 PHAMI: dose for growth reduction of 50 percent; for GR80 PHAMI: dose for growth reduction of 80 percent
In short: as §1

[4] = test system: STEME: common chickweed (Stellaria media); conditions: for pest or weed control at 35 g/ha / pest or weed control at 70 g/ha / pest or weed control at 140 g/ha: Stellaria media, post-emergence, 504 h, read-out: Visual Growth Reduction (%) 21 Days After Application STEME; for pest or weed control at 35 g/ha: 35 g ai/ha; for pest or weed control at 70 g/ha: 70 g ai/ha; for pest or weed control at 140 g/ha: 140 g ai/ha; for GR50 STEME / GR80 STEME: probit analysis, 21 days after application; for GR50 STEME: dose for growth reduction of 50 percent; for GR80 STEME: dose for growth reduction of 80 percent
In short: as §1

[5] = test system: CIRAR: Canada thistle (Cirsium arvense); conditions: Table 8, 21 d; for pest or weed control at 35 g/ha / pest or weed control at 70 g/ha: Cirsium arvense, post-emergence, 504 h, post-emergent, read-out: Visual Growth Reduction (%) 21 Days After Application CIRAR; for pest or weed control at 35 g/ha: 35 g ai/ha; for pest or weed control at 70 g/ha: 70 g ai/ha; for GR50 CIRAR: dose for 50 percent growth reduction; for GR50 CIRAR / GR80 CIRAR: probit analysis; for GR80 CIRAR: dose for 80 percent growth reduction
In short: as §1

[6] = test system: GALAP: cleavers (Galium aparine); conditions: Table 8, 21 d; for pest or weed control at 35 g/ha / pest or weed control at 70 g/ha: Galium aparine, post-emergence, 504 h, post-emergent, read-out: Visual Growth Reduction (%) 21 Days After Application GALAP; for pest or weed control at 35 g/ha: 35 g ai/ha; for pest or weed control at 70 g/ha: 70 g ai/ha; for GR50 GALAP: dose for 50 percent growth reduction; for GR50 GALAP / GR80 GALAP: probit analysis; for GR80 GALAP: dose for 80 percent growth reduction
In short: as §1

[7] = dose for growth reduction of 50 percent, 21 days after application
[8] = dose for growth reduction of 80 percent, 21 days after application
[9] = Table 8, dose for 50 percent growth reduction, 21 d
[10] = Table 8, dose for 80 percent growth reduction, 21 d

Nc1cc(-c2ccc(Br)c(F)c2F)nc(C(=O)O)c1Cl [Compound 91]
pest or weed control at 35 g/ha [1]: 45 to 59%
pest or weed control at 70 g/ha [1]: 45 to 59%
pest or weed control at 140 g/ha [1]: 45 to 59%
GR50 ALOMY [1]: 98 g ai/ha
GR80 ALOMY [1]: >140 g ai/ha
pest or weed control at 35 g/ha [2]: 95 to 100%
pest or weed control at 70 g/ha [2]: 95 to 100%
pest or weed control at 140 g/ha [2]: 95 to 100%
GR50 PAPRH [2, 7]: 1 g ai/ha
GR80 PAPRH [2, 8]: 1 g ai/ha
pest or weed control at 35 g/ha [3]: 30 to 44%
pest or weed control at 70 g/ha [3]: 30 to 44%
pest or weed control at 140 g/ha [3]: 30 to 44%
GR50 PHAMI [3]: >140 g ai/ha
GR80 PHAMI [3]: >140 g ai/ha
pest or weed control at 35 g/ha [4]: 0 to 29%
pest or weed control at 70 g/ha [4]: 30 to 44%
pest or weed control at 140 g/ha [4]: 45 to 59%
GR50 STEME [4]: >140 g ai/ha
GR80 STEME [4]: >140 g ai/ha

Nc1cc(-c2ccc(Br)c(F)c2)nc(C(=O)O)c1Cl [Compound 110, 4-Amino-6-(4-bromo-3-fluorophenyl)-3-chloropicolinic acid]
pest or weed control at 35 g/ha [5]: 75 to 84%
pest or weed control at 70 g/ha [5]: 75 to 84%
GR50 CIRAR [5]: 19 g ai/ha
GR80 CIRAR [5]: 52 g ai/ha
pest or weed control at 35 g/ha [6]: 95 to 100%
pest or weed control at 70 g/ha [6]: 95 to 100%
GR50 GALAP [6]: 1 g ai/ha
GR80 GALAP [6]: 1 g ai/ha
pest or weed control at 35 g/ha ([2]; Table 8, post-emergent, 21 d): 95 to 100%
pest or weed control at 70 g/ha ([2]; Table 8, post-emergent, 21 d): 95 to 100%
GR50 PAPRH [2, 9]: 1 g ai/ha
GR80 PAPRH [2, 10]: 1 g ai/ha

COc1c(N)nc(-c2ccc(Br)c(F)c2)nc1C(=O)O [Compound 113, 6-Amino-2-(4-bromo-3-fluorophenyl)-5-methoxypyrimidine-4-carboxylic acid]
pest or weed control at 35 g/ha [5]: 75 to 84%
pest or weed control at 70 g/ha [5]: 85 to 94%
GR50 CIRAR [5]: 7 g ai/ha
GR80 CIRAR [5]: 33 g ai/ha
pest or weed control at 35 g/ha [6]: 95 to 100%
pest or weed control at 70 g/ha [6]: 95 to 100%
GR50 GALAP [6]: 5 g ai/ha
GR80 GALAP [6]: 12 g ai/ha
pest or weed control at 35 g/ha ([2]; Table 8, post-emergent, 21 d): 95 to 100%
pest or weed control at 70 g/ha ([2]; Table 8, post-emergent, 21 d): 95 to 100%
GR50 PAPRH [2, 9]: 1 g ai/ha
GR80 PAPRH [2, 10]: 1 g ai/ha

COC(=O)c1nc(-c2ccc(F)c(F)c2F)c(F)c(N)c1Cl [Compound 186]
pest or weed control at 35 g/ha [1]: 0 to 29%
pest or weed control at 70 g/ha [1]: 0 to 29%
pest or weed control at 140 g/ha [1]: 0 to 29%
GR50 ALOMY [1]: >140 g ai/ha
GR80 ALOMY [1]: >140 g ai/ha

COC(=O)c1nc(-c2ccc(F)cc2)c(F)c(N)c1Cl [Compound 204]
pest or weed control at 35 g/ha [1]: 0 to 29%
pest or weed control at 70 g/ha [1]: 45 to 59%
pest or weed control at 140 g/ha [1]: 45 to 59%
GR50 ALOMY [1]: 105 g ai/ha
GR80 ALOMY [1]: >140 g ai/ha

Nc1c(F)c(-c2ccc(Cl)c(F)c2)nc(C(=O)O)c1Cl [Compound 217]
pest or weed control at 35 g/ha [1]: 75 to 84%
pest or weed control at 70 g/ha [1]: 85 to 94%
pest or weed control at 140 g/ha [1]: 85 to 94%
GR50 ALOMY [1]: 12 g ai/ha
GR80 ALOMY [1]: 31 g ai/ha
pest or weed control at 35 g/ha [2]: 95 to 100%
pest or weed control at 70 g/ha [2]: 95 to 100%
pest or weed control at 140 g/ha [2]: 95 to 100%
GR50 PAPRH [2, 7]: 1 g ai/ha
GR80 PAPRH [2, 8]: 1 g ai/ha
pest or weed control at 35 g/ha [3]: 85 to 94%
pest or weed control at 70 g/ha [3]: 85 to 94%
pest or weed control at 140 g/ha [3]: 85 to 94%
GR50 PHAMI [3]: 11 g ai/ha
GR80 PHAMI [3]: 30 g ai/ha
pest or weed control at 35 g/ha [4]: 60 to 74%
pest or weed control at 70 g/ha [4]: 75 to 84%
pest or weed control at 140 g/ha [4]: 75 to 84%
GR50 STEME [4]: 28 g ai/ha
GR80 STEME [4]: 88 g ai/ha
